Experimental data from patent publication US20250179059A1 (The Regents of the University of California, priority 2021, published 2025).
Read-outs that look alike come from different tables or passages of the source.

Tests used:
[1] = target: T1, human BRD4 bromodomain II (Homo sapiens, UniProt O60885); experiment: Bromodomain binding assay (AlphaScreen), BRD4 BDII
T1 construct: human BRD4 bromodomain II [based on Genbank NM_058243, residues 349-460]; host or cells: E. coli
Procedure, shortened: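 AlphaScreen competition with biotinylated H4 peptide (aa 1-21, K5/K8/K12/K16Ac), using nickel-chelate acceptor and streptavidin donor beads. Targets were His6-BRD4 BDI (44-170) or BDII (349-460), with a 30 min compound preincubation over a 10-point 3-fold series. IC50 was fitted from percentage peptide binding.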

[2] = tested on: human SKM-1 acute myeloid leukemia cells; experiment: SKM-1 antiproliferation cell-based assay (ATPlite); settings: Homo sapiens
Procedure, shortened: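 Log-phase cells in RPMI 1640/15% FBS were seeded at 34722 cells/mL and exposed for 4 days to nine-concentration DMSO serial dilutions in triplicate. Viability was read as ATP luminescence (ATPlite 1step), and IC50 values came from variable-slope non-linear regression.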

[3] = AlphaScreen assay, Table C2, read-out: BRD4 BDII IC50
[4] = SKM-1, 96 h, SKM-1 antiproliferation assay, 4 days, Table C2
[5] = BRD4 BDII AlphaScreen assay, read-out: BRD4 BD2 IC50
[6] = SKM-1, SKM-1 antiproliferation assay

| Compound | IC50 [1, 3] | GI50 [2, 4] | IC50 [1, 5] | GI50 [2, 6] |
| --- | --- | --- | --- | --- |
| Cn1ccn(-c2ccc(-c3cc(F)cc(-c4ccc(F)c(N5CC[C@@](C)(O)C5)c4)c3O)cc2Cl)c1=O [Example 775, (R)-1-(3-chloro-4″,5′-difluoro-2′-hydroxy-3″-(3-hydroxy-3-methylpyrrolidin-1-yl)-[1,1′:3′,1″-terphenyl]-4-yl)-3-methyl-1H-imidazol-2(3H)-one] | 1 to 10 nM | 30 to 300 nM | – | – |
| Cn1ccn(-c2ccc(-c3cc(F)cc(-c4ccnc(N5CC[C@H](O)C5)c4)c3O)cc2Cl)c1=O [Example 626, (S)-1-(3-chloro-5′-fluoro-2′-hydroxy-3′-(2-(3-hydroxypyrrolidin-1-yl)pyridin-4-yl)-[1,1′-biphenyl]-4-yl)-3-methyl-1H-imidazol-2(3H)-one] | 0.01 to 1 nM | 30 to 300 nM | – | – |
| Cn1ccn(-c2ccc(-c3cc(F)cc(-c4ccnc(N5CCN(C6CCOCC6)CC5)c4)c3O)cc2Cl)c1=O [Example 634, 1-(3-chloro-5′-fluoro-2′-hydroxy-3′-(2-(4-(tetrahydro-2H-pyran-4-yl)piperazin-1-yl)pyridin-4-yl)-[1,1′-biphenyl]-4-yl)-3-methyl-1H-imidazol-2(3H)-one] | 0.01 to 1 nM | 0.3 to 30 nM | – | – |
| COc1ncc(-c2cc(F)cc(-c3ccc(-n4ccn(C)c4=O)c(Cl)c3)c2O)cc1N1CC[C@@](C)(O)C1 [Example 812, (R)-1-(3-chloro-5′-fluoro-2′-hydroxy-3′-(5-(3-hydroxy-3-methylpyrrolidin-1-yl)-6-methoxypyridin-3-yl)-[1,1′-biphenyl]-4-yl)-3-methyl-1H-imidazol-2(3H)-one] | 0.01 to 1 nM | 0.3 to 30 nM | – | – |
| CN1CCCC12CCN(c1cncc(-c3cc(F)cc(-c4ccc(-n5ccn(C)c5=O)c(Cl)c4)c3O)c1)C2 (centres unmarked) [Example 700, 1-(3-chloro-5′-fluoro-2′-hydroxy-3′-(5-(1-methyl-1,7-diazaspiro[4.4]nonan-7-yl)pyridin-3-yl)-[1,1′-biphenyl]-4-yl)-3-methyl-1H-imidazol-2(3H)-one] | 0.01 to 1 nM | 0.3 to 30 nM | – | – |
| CC#Cc1ncc(-c2cc(F)cc(-c3ccc(N4CCN(C)C4=O)c(Cl)c3)c2O)cc1N1CCNCC1 [Example 403, 1-(3-chloro-5′-fluoro-2′-hydroxy-3′-(5-(piperazin-1-yl)-6-(prop-1-yn-1-yl)pyridin-3-yl)-[1,1′-biphenyl]-4-yl)-3-methylimidazolidin-2-one] | 1 to 10 nM | 0.3 to 30 nM | – | – |
| CC(C)N1CCC[C@]12CCN(c1cccc(-c3cc(F)cc(-c4ccc(-n5ccn(C)c5=O)c(Cl)c4)c3O)c1)C2 [Example 967, (R)-1-(3-chloro-5′-fluoro-2′-hydroxy-3″-(1-isopropyl-1,7-diazaspiro[4.4]nonan-7-yl)-[1,1′:3′,1″-terphenyl]-4-yl)-3-methyl-1,3-dihydro-2H-imidazol-2-one] | – | – | 1 to 10 nM | 30 to 300 nM |
| CCOc1cc(-c2cc(F)cc(-c3cccc(N4CCN(C(C)(C)C)CC4)c3)c2O)cc(Cl)c1-n1ccn(C)c1=O [Example 925, 1-(3″-(4-(tert-Butyl)piperazin-1-yl)-3-chloro-5-ethoxy-5′-fluoro-2′-hydroxy-[1,1′:3′,1″-terphenyl]-4-yl)-3-methyl-1H-imidazol-2(3H)-one] | – | – | 10 to 100 nM | 30 to 300 nM |
| Cn1ccn(-c2ccc(-c3cc(F)cc(-c4ccccc4CN4CCNCC4)c3O)cc2Cl)c1=O [Example 889] | – | – | > 100 nM | 300 to 3000 nM |
| Cc1cc(-c2ccc(-n3ccn(C)c3=O)c(Cl)c2)c(O)c(-c2cc(Cl)cc(N3CCN(C(C)(C)C)CC3)c2)n1 [Example 999, 1-(4-(2-(3-(4-(tert-butyl)piperazin-1-yl)-5-chlorophenyl)-3-hydroxy-6-methylpyridin-4-yl)-2-chlorophenyl)-3-methyl-1H-imidazol-2(3H)-one] | – | – | 1 to 10 nM | 0.3 to 30 nM |
| CN1CCN(c2ccc(-c3cc(F)cc(-c4ccnc(N5CC[C@H](N)C5)c4)c3O)cc2Cl)C1=O [Example 353, (S)-1-(3′-(2-(3-aminopyrrolidin-1-yl)pyridin-4-yl)-3-chloro-5′-fluoro-2′-hydroxy-[1,1′-biphenyl]-4-yl)-3-methylimidazolidin-2-one] | 1 to 10 nM | 30 to 300 nM | – | – |
| CC(C)C(=O)Nc1cc(-c2cc(F)cc(-c3ccc(-n4ccn(C)c4=O)c(Cl)c3)c2O)cc(N2CC[C@H](N)C2)n1 [Example 524, (S)-N-(6-(3-aminopyrrolidin-1-yl)-4-(3′-chloro-5-fluoro-2-hydroxy-4′-(3-methyl-2-oxo-2,3-dihydro-1H-imidazol-1-yl)-[1,1′-biphenyl]-3-yl)pyridin-2-yl)isobutyramide] | 1 to 10 nM | 0.3 to 30 nM | – | – |
| Cn1cc(-c2cc(F)cc(-c3ccc(-n4ccn(C)c4=O)c(Cl)c3)c2O)cc(N2CC[C@H](N)C2)c1=O [Example 422, (S)-3-(3-aminopyrrolidin-1-yl)-5-(3′-chloro-5-fluoro-2-hydroxy-4′-(3-methyl-2-oxo-2,3-dihydro-1H-imidazol-1-yl)-[1,1′-biphenyl]-3-yl)-1-methylpyridin-2(1H)-one] | 0.01 to 1 nM | 0.3 to 30 nM | – | – |
| Cn1ccn(-c2ccc(-c3cc(F)cc(-c4ccnc(N5CCC6(CCCO6)C5)c4)c3O)cc2Cl)c1=O (centres unmarked) [Example 683, 1-(3′-(2-(1-oxa-7-azaspiro[4.4]nonan-7-yl)pyridin-4-yl)-3-chloro-5′-fluoro-2′-hydroxy-[1,1′-biphenyl]-4-yl)-3-methyl-1H-imidazol-2(3H)-one] | 0.01 to 1 nM | 30 to 300 nM | – | – |
| CC(C)N1CCC12CCN(c1cc(-c3cc(F)cc(-c4ccc(-n5ccn(C)c5=O)c(Cl)c4)c3O)cnc1N)C2 (centres unmarked) [Example 954, 1-(3′-(6-amino-5-(1-isopropyl-1,6-diazaspiro[3.4]octan-6-yl)pyridin-3-yl)-3-chloro-5′-fluoro-2′-hydroxy-[1,1′-biphenyl]-4-yl)-3-methyl-1H-imidazol-2(3H)-one] | – | – | 1 to 10 nM | 0.3 to 30 nM |
| Cn1ccn(-c2ccc(-c3cc(F)cc(-c4cncc(N5CC6CCC(C5)N6)c4)c3O)cc2Cl)c1=O [Example 512, 1-(3′-(5-(3,8-diazabicyclo[3.2.1]octan-3-yl)pyridin-3-yl)-3-chloro-5′-fluoro-2′-hydroxy-[1,1′-biphenyl]-4-yl)-3-methyl-1H-imidazol-2(3H)-one] | 1 to 10 nM | 0.3 to 30 nM | – | – |
| CC(=O)NC1(c2cccc(-c3cc(F)cc(-c4ccc(-n5ccn(C)c5=O)c(Cl)c4)c3O)c2)CC1 [Example 764, N-(1-(3″-chloro-5′-fluoro-2′-hydroxy-4″-(3-methyl-2-oxo-2,3-dihydro-1H-imidazol-1-yl)-[1,1′:3′,1″-terphenyl]-3-yl)cyclopropyl)acetamide] | 1 to 10 nM | 300 to 3000 nM | – | – |
| Cc1cc(-c2ccc(-n3ccn(C)c3=O)c(Cl)c2)c(O)c(-c2cc(N3CCN(C(C)(C)C)CC3)n(C)c(=O)c2)n1 [Example 1009, 6′-(4-(tert-butyl)piperazin-1-yl)-4-(3-chloro-4-(3-methyl-2-oxo-2,3-dihydro-1H-imidazol-1-yl)phenyl)-3-hydroxy-1′,6-dimethyl-[2,4′-bipyridin]-2′(1′H)-one] | – | – | 1 to 10 nM | 0.3 to 30 nM |
| CC(=O)Nc1ccc(-c2cccc(-c3cccc(N4CC5CNC(C5)C4)c3)c2O)cc1F (centres unmarked) [Example 206, N-(3″-(3,6-diazabicyclo[3.2.1]octan-3-yl)-3-fluoro-2′-hydroxy-[1,1′:3′,1″-terphenyl]-4-yl)acetamide] | 1 to 10 nM | 30 to 300 nM | – | – |
